Test results published in US8106186B2, “Transition metal phosphine complex, method for producing same, and anticancer agent containing transition metal phospine complex” (Nippon Chemical Industrial Co., Ltd., priority 2005, dated 2012).

Assays:
[1] = tested on: Human acute myelocytic leukemia cells HL-60; assay: Evaluation of anticancer property 1: MTT viable cell assay (modified Mosmann method); assay type: cell-based; details: HL-60 cells, 24 hours culture, average of assays
Description: Human acute myelocytic leukemia cells cancer cells HL-60 was used as cancer cells. The cells were cultured in Rosewell Park Memorial Institute medium (RPMI 1640) supplemented with 10% fetal bovine serum, 1% antibiotic, and an antifungal agent in an atmosphere of 5% carbon dioxide in a moist incubator at 37° C.
Cells were washed with PBS. After the number of cells was determined, a suspension (1×10^6 cells/mL) was prepared with the same medium. The suspension was seeded in a sterile 96-well microplate at a density of 50,000 cells/well.
The wells were further cultured in the incubator for 24 hours.
The number of viable cells was determined by a modified Mosmann method (T. Mosmann, J. Immunnol. Method (1983)65, 55-63). […] The wells were cultured for another 3 hours under the same conditions. Formazan crystals formed by the enzyme activity of mitochondria in the cells were dissolved in 0.04 mol/HCl/isopropyl alcohol. The absorbance of each well was measured at 595 nm with a microplate reader (Bio-Rad 550). To remove the background, the absorbance of each well was measured at 630 nm. The absorbance at 630 nm was subtracted from the actual measured value. This is determined to be the number of viable cells.

[2] = tested on: female Sprauge-Dawley SPF rats (CrJ:CD (SD)); assay: Toxicity test by single oral administration to rats; assay type: in vivo, rat; details: for LD50: rats, single oral dose in corn oil, observed 14 days, from survival rate
Description: After female Sprauge-Dawley SPF rats (CrJ:CD (SD)) were quarantined and acclimated for about a week, healthy 8-week-old rats were selected in groups of five rats.

[3] = tested on: SH-10-TC (cells derived from human gastric cancer); assay: Evaluation of anticancer property 2: MTT assay, gastric cancer cells; assay type: cell-based; details: RPMI-1640+10% FBS, assayed as in Evaluation 1, read-out: IC50, Cell derived from human gastrict cancer
Description: (§1) The number of viable cells was determined by a modified Mosmann method (T. Mosmann, J. Immunnol. Method (1983)65, 55-63). That is, a solution of a tetrazolium salt (3,[4,5-dimethylthiazole-2-yl]-2,5-diphenyltetrazolium bromide, MTT) was added thereto. The wells were cultured for another 3 hours under the same conditions. Formazan crystals formed by the enzyme activity of mitochondria in the cells were dissolved in 0.04 mol/HCl/isopropyl alcohol. The absorbance of each well was measured at 595 nm with a microplate reader (Bio-Rad 550). To remove the background, the absorbance of each well was measured at 630 nm. The absorbance at 630 nm was subtracted from the actual measured value. This is determined to be the number of viable cells. […] For the values shown in Table 3, each of Compounds 1 to 3 was assayed three times, and the average value was shown.
(§2) Compounds (2) and (3) obtained in Examples 2 and 3 were assayed as in Evaluation 1 with HCS-4 (cells derived from human tongue cancer, medium: RPMI 1640+10% FBS), COLO205 (cells derived from human colon, medium: RPMI-1640+10% FBS), and SH-10-TC (cells derived from human gastric cancer, medium: RPMI-1640+10% FBS).

[4] = tested on: COLO205 (cells derived from human colon); assay: Evaluation of anticancer property 2: MTT assay, colon cells; assay type: cell-based; details: COLO205, RPMI-1640+10% FBS, assayed as in Evaluation 1; read-out: IC50, Cell derived from human colon
Description: as §1, §2

[5] = tested on: HCS-4 (cells derived from human tongue cancer); assay: Evaluation of anticancer property 2: MTT assay, tongue cancer cells; assay type: cell-based; details: HCS-4, RPMI 1640+10% FBS, assayed as in Evaluation 1; read-out: IC50, Cell derived from human tongue cancer
Description: as §1, §2

Substance	IC50 [1]	LD50 [2]	IC50 [3]	IC50 [4]	IC50 [5]	Death of rats, 100 mg/kg group ([2]; single oral dose 100 mg/kg, five rats, death at 5 days after administration)	Death of rats, 300 mg/kg group ([2]; single oral dose 300 mg/kg, five rats, deaths by day 2)	Death of rats, 20 and 50 mg/kg groups ([2]; single oral dose 20 and 50 mg/kg, five rats per group)
bis((R,R)-1,2-bis(tert-butyl(2-pyridyl)phosphino)ethane)gold(I) chloride [Compound (3)]	3580 nM	300 mg/kg or more	900 nM	1500 nM	3500 nM			
bis(meso-1,2-bis(tert-butyl(2-pyridyl)phosphino)ethane)gold(I) chloride [Compound (2)]	5130 nM	300 mg/kg or more	1200 nM	2200 nM	1400 nM			
bis(rac-1,2-bis(tert-butyl(2-pyridyl)phosphino)ethane)gold(I) chloride [Compound (1)]	4510 nM	300 mg/kg or more						
bis[1,2-bis(phenyl(2-pyridyl)phosphino)ethane]gold(I) chloride [Compound (5), reference compound]	3560 nM					one rat died	three rats died	no death was observed
